According to patent US3966951A, “Esters of quinoxaline-1,4-dioxides” (Pfizer Inc., priority 1975, dated 1976):
In brackets after ≈: the same amount, converted by molar mass.

What was measured:
[1] = tested on: Past. mult 59A004; experiment: in vitro MIC, Inocula Replicating Device, anaerobic Gas Pac, BHI agar; format: cell-based; conditions: unit assumed
[2] = tested on: Staph. aureus 01A005; experiment: as above; format: cell-based; conditions: unit assumed
[3] = tolerance in chicks; format: in vivo; conditions: 250 ppm
[4] = tested on: Staph. aureus 01A106; experiment: in vitro MIC, Inocula Replicating Device, anaerobic Gas Pac, BHI agar; format: cell-based; conditions: unit assumed
[5] = tested on: Sal. typhim 58D011; experiment: as above; format: cell-based; conditions: unit assumed
[6] = tested on: Strep. zoo 02-H001; experiment: as above; format: cell-based; conditions: unit assumed
[7] = tested on: salmonellosis; experiment: prophylaxis of induced salmonellosis; format: in vivo, swine; conditions: 50 ppm in feed
Description: (§1) In the prophylaxis of two induced diseases, swine dysentery and salmonellosis, excellent results have been obtained. […] In the salmonellosis model, 20 percent of the nonmedicated animals died and 50 percent of the survivors were unthrifty.

[8] = feed efficiency of swine; format: in vivo; conditions: 50 ppm in feed
[9] = tested on: Past. mult 59A006; experiment: in vitro MIC, Inocula Replicating Device, anaerobic Gas Pac, BHI agar; format: cell-based; conditions: unit assumed
[10] = tested on: Aer. hydro 72B001; experiment: as above; format: cell-based; conditions: unit assumed
[11] = tested on: E. Coli 51A-266; experiment: as above; format: cell-based; conditions: unit assumed
[12] = tested on: Sal. dublin 58U001; experiment: as above; format: cell-based; conditions: unit assumed
[13] = tolerance and pathological examination in swine; format: in vivo
[14] = tested on: Treponema hyodysenteriae; experiment: MIC against Treponema hyodysenteriae on bovine blood/tryptose agar; format: cell-based; conditions: about 5% bovine blood, about 3% tryptose agar, unit assumed
Experimental: MIC's against Treponema hyodysenteriae were determined by spreading appropriate dilutions of the microorganism on a growth medium containing about 5% bovine blood and about 3% tryptose agar.

[15] = tested on: swine dysentery; experiment: prophylaxis of induced swine dysentery; format: in vivo; conditions: 25 ppm or 50 ppm in feed
Description: as §1

[16] = tested on: Strep. equi 021001; experiment: in vitro MIC, Inocula Replicating Device, anaerobic Gas Pac, BHI agar; format: cell-based; conditions: unit assumed
[17] = tested on: E. Coli 51A266; experiment: acute systemic infection in mice, PD50; format: in vivo; conditions: Escherichia coli, 0.5, 4 and 24 h after inoculation, ± is 95% confidence
Experimental: (§2) Acute systemic infections in mice have been used to evaluate the in vivo therapeutic activity of Compound 10. These infections are produced by the intraperitoneal injection of standard cultures suspended in hog gastric mucin. Treatment was initiated 0.5 hours after inoculation with the infecting organism and two subsequent doses administered at 4 and 24 hours after inoculation. Efficacy was measured in PD50 values, the dose of the drug in mg/kg required to protect 50% of the treated mice against otherwise lethal infections. These values were calculated based on the number of mice surviving a 4 day post-treatment holding period. The drugs were administered both orally (po) and subcutaneously (sc). The range quoted indicates the 95% confidence level for the PD50.

[18] = tested on: Past. multi. 59A006; experiment: acute systemic infection in mice, PD50; format: in vivo; conditions: Mus musculus, 0.5, 4 and 24 h after inoculation, ± is 95% confidence
Experimental: as §2

[19] = tested on: Sal. cholsu. 58B242; experiment: acute systemic infection in mice, PD50; format: in vivo; conditions: Mus musculus, 0.5, 4 and 24 h after inoculation, ± is 95% confidence
Experimental: as §2

[20] = tested on: E. Coli 51A-218; experiment: in vitro MIC, Inocula Replicating Device, anaerobic Gas Pac, BHI agar; format: cell-based; conditions: unit assumed
[21] = tested on: Sal. cholsu 58B242; experiment: as above; format: cell-based; conditions: unit assumed
[22] = tested on: Strep. pyogen 02C203; experiment: as above; format: cell-based; conditions: unit assumed

For `CC(=O)c1c(COC(=O)CCc2ccc(O)cc2)[n+]([O-])c2ccccc2[n+]1[O-]` [Compound 10, 2-acetyl-3-Hydroxymethyl-Quinoxaline-1,4-Dioxide-p-Hydroxyphenylpropionic Acid Ester], the Primary in vitro Activity (MIC) [1] was 25 µg/mL, the Primary in vitro Activity (MIC) [2] was < 0.39 µg/mL and the tolerance in chicks [3] was “extremely well tolerated”. The Primary in vitro Activity (MIC) [4] was < 0.39 µg/mL, the Primary in vitro Activity (MIC) [5] was 12.5 µg/mL and the Primary in vitro Activity (MIC) [6] was < 0.39 µg/mL. The “mortality in salmonellosis model” value ([7]; nonmedicated: 20 percent died) was “none of the animals on a feed containing 50 ppm of Compound 10 died”, the “animals judged unthrifty in salmonellosis model” value ([7]; nonmedicated: 50 percent of survivors) was 30% and the “increase in feed efficiency of swine” value [8] was 3%. For the same compound, the Primary in vitro Activity (MIC) [9] was 12.5 µg/mL, the Primary in vitro Activity (MIC) [10] was 1.56 µg/mL and the Primary in vitro Activity (MIC) [11] was 25 µg/mL. The Primary in vitro Activity (MIC) [12] was 50 µg/mL, the tolerance in swine ([13]; 150 ppm) was “The same results are observed in swine” and the “adverse effects on pathological examination” value ([13]; swine, 50 ppm in feed) was “no adverse effects”. For the same compound, the MIC [14] was 0.19 µg/mL (≈ 0.497 µM), the “morbidity in dysentery model” value ([15]; nonmedicated: 100 percent) was “no deaths or morbidity” and the “mortality in dysentery model” value ([15]; nonmedicated: average 36 percent) was “no deaths”. For the same compound, the Primary in vitro Activity (MIC) [16] was < 0.39 µg/mL, the ED50 ([17]; po) was 7.6 ± 4.7 mg/kg and the ED50 ([17]; sc) was 13.3 ± 8.6 mg/kg. The ED50 ([18]; po) was 13 ± 1.6 mg/kg, the ED50 ([18]; sc) was 13 ± 1.6 mg/kg and the ED50 ([19]; po) was 8.4 ± 3.2 mg/kg. It also gave an ED50 ([19]; sc) of 6.9 ± 3.1 mg/kg, a Primary in vitro Activity (MIC) [20] of 6.25 µg/mL and a Primary in vitro Activity (MIC) [21] of 50 µg/mL. The Primary in vitro Activity (MIC) [22] was < 0.39 µg/mL.
